The record followed here is patent US5317019A, “Inhibition of interleukin-1 and tumor necrosis factor production by monocytes and/or macrophages” (priority 1991, dated 1994).

In one experiment the test system is IL-1 production by human monocytes. Briefly: In vitro IL-1 production by LPS-stimulated human monocytes. It counts as cell-based. The following applies: Homo sapiens, Monocyte; Table 1; LPS 50 ng/ml, 24 h; read-out: IC50, effect on LPS-stimulated IL-1 production by human monocytes. How it is done:
Bacterial lipopolysaccharide (LPS) was used to induce IL-1 production by human peripheral blood monocytes. IL-1 activity was measured by its ability to stimulate a Interleukin 2 (IL-2) producing cell line […] to secrete IL-2, in concert with A23187 ionophore, according to the method of Simon et al., J. Immunol. […] The cells were allowed to adhere for 2 hours, after which time non-adherent cells were removed by gentle washing. […] At the end of the incubation period, culture supernatants were removed and clarified of cells and all debris.
What is called IC50 is the concentration that inhibits the measured activity by half. Consider `CSc1ccc(-c2c(-c3ccncc3)nc3n2CCC3)cc1` [Compound 13, 3-(4-methylthiophenyl)-2-(4-pyridyl)-6,7-dihydro-[5H]-pyrrolo-[1,2-a]-imidazole], for which the IC50 stood at 2000 nM.

As for `CCCSc1ccc(-c2nc3n(c2-c2ccncc2)CCC3)cc1` [Compound 14, 2-(4-propylthiophenyl)-3-(4-pyridyl)-6,7-dihydro-[5H]-pyrrolo-[1,2-a]-imidazole], the IC50 was > 10000 nM.

Take `COc1ccc(-c2nc3ccccn3c2-c2ccncc2)cc1` [Compound 7, 2-(4-methoxyphenyl)-3-(4-pyridyl)-imidazo-[1,2-a]-pyridine]: the IC50 came out at 1000 nM.

As to `CSc1ccc(-c2nc3n(c2-c2ccncc2)CCS3)cc1` [Compound 11, 6-(4-methylthiophenyl)-5-(4-pyridyl)-2,3-dihydro-imidazo-[2,1-b]-thiazole], the IC50 worked out at 1800 nM.

For the compound `COc1ccc(-c2nc3n(c2-c2ccnc(C)c2)CCC3)cc1` [Compound 9, 2-(4-methoxyphenyl)-3-(4-(2-methyl)pyridyl)-6,7-dihydro-[5H]-pyrrolo-[1,2-a]-imidazole], the IC50 stood at 700 nM.

For `c1cc(-c2nc3n(c2-c2ccc4c(c2)OCO4)CCS3)ccn1` [Compound 8, 5-(3,4-(methylenedioxy)phenyl)-6-(4-pyridyl)-2,3-dihydroimidazo-[2-1-b]-thiazole], the IC50 amounted to 10000 nM.

As for `CCc1cc(-c2c(-c3ccc(SC)cc3)nc3n2CCC3)ccn1` [Compound 15, 2-(4-methylthiophenyl)-3-(4-(2-ethyl)pyridyl)-6,7-dihydro-[5H]-pyrrolo-[1,2-a-]-imidazole], the IC50 came to 1300 nM.

`CSc1ccc(-c2c(-c3ccncc3)nc3n2CCS3)cc1` [Compound 12, 5-(4-methylthiophenyl)-6-(4-pyridyl)-2,3-dihydro-imidazo-[2,1-b]-thiazole]: the IC50 was 1800 nM.

Turning to `CC(=O)OCSc1ccc(-c2nc3n(c2-c2ccncc2)CCC3)cc1` [Compound 10, 2-(4-acetoxymethylthiophenyl)-3-(4-pyridyl)-6,7-dihydro-[5H]-pyrrolo-[1,2-a]-imidazole], the IC50 turned out to be 6300 nM.

The same experiment, now with this note: Homo sapiens, Monocyte; Table 3; read-out: IC50, inhibition of IL-1 production by LPS stimulated monocytes in vitro.
For the compound `CCOc1ccc(-c2nc3n(c2-c2ccncc2)CCC3)cc1` [Compound 18, 2-(4-(1-Ethoxy)phenyl)-3-(4-pyridyl)-6,7-dihydro[5H]pyrrolo-[1,2-a]-imidazole], the 50% inhibitory concentration (IC50) came to 10000 nM.

For `Brc1ccc(-c2nc3n(c2-c2ccncc2)CCC3)cc1` [Compound 27, 2-(4-Bromophenyl)-3-(4-pyridyl)-6,7-dihydro-[5H]-pyrrolo-[1,2-a]-imidazole], the IC50 came to 700 nM.

With `c1cc(-c2c(-c3ccc(SSc4ccc(-c5nc6n(c5-c5ccncc5)CCC6)cc4)cc3)nc3n2CCC3)ccn1` [Compound 23, 2-(4-Mercaptophenyl)-3-(4-pyridyl)-6,7-dihydro-[5H]-pyrrolo-[1,2-a]-imidazole disulfide], the IC50 is 5900 nM.

As for `COc1ccc(-c2nc3n(c2-c2ccncc2)CCS3)cc1` [Compound 25, 6-(4-Methoxyphenyl)-5-(4-pyridyl)-2,3-dihydroimidazo-[2,1-b]-thiazole], the half-inhibitory concentration (IC50) turned out to be 3000 nM.

Consider `CCCOc1ccc(-c2nc3n(c2-c2ccncc2)CCC3)cc1` [Compound 19, 2-(4-(1-Propoxy)phenyl)-3-(4-pyridyl)-6,7-dihydro[5H]pyrrolo-[1,2-a]-imidazole], for which the IC50 is > 10000 nM.

`CC(C)Oc1ccc(-c2nc3n(c2-c2ccncc2)CCC3)cc1` [Compound 17, 2-(4-(2-Propoxy)phenyl)-3-(4-pyridyl)-6,7-dihydro-[5H]-pyrrolo-[1,2-a]-imidazole]: the IC50 is > 10000 nM.

As to `COc1ccc(-c2c(-c3ccncc3)nc3n2CCS3)cc1` [Compound 26, 5-(4-Methoxyphenyl)-6-(4-pyridyl)-2,3-dihydroimidazole-[2,1-b]-thiazole], the IC50 was ≥ 10000 nM.

With `c1ccc(-c2nc3n(c2-c2ccncc2)CCC3)cc1` [Compound 22, 2-Phenyl-3-(4-pyridyl)-6,7-dihydro-[5H]-pyrrolo-[1,2-a]imidazole], the IC50 turned out to be 500 nM.

For `COc1ccc(-c2nc3n(c2-c2ccncc2)CCC3)cc1` [Compound 24, 2-(4-Methoxyphenyl)-3-(4-pyridyl)-6,7-dihydro-[5H]-pyrrolo-[1,2-a]-imidazole], the IC50 worked out at 100 nM.

Still in this experiment, the particulars now being: Table 3; read-out: IC50, inhibition of IL-1 production by LPS stimulated monocytes in vitro.
Take `COc1ccc(-c2c(-c3ccncc3)n3c([n+]2C)CCC3)cc1` [Compound 21, 2-(4-Methoxyphenyl)-3-(4-pyridyl)-6,7-dihydro-[5H]-pyrrolo-[1,2-a]-N-methylimidazole, monomethylsulfate]: the IC50 was > 10000 nM.

For the compound “2-(Acetyl-thio-phenyl)-3-(4-pyridyl)-6,7-dihydro[5H]-pyrrolo-[1,2-a]-imidazole [Compound 20]”, the IC50 was > 10000 nM.

On to “2-[Trimethylacetyl(thiophenyl)]-3-(4-pyridyl)-6,7-dihydro[5H]pyrrolo-[1,2-a]-imidazole [Compound 16]”, for which the IC50 is > 10000 nM.

A further experiment deals with TNF production by human monocytes. Nature of the experiment: In vitro TNF production by LPS-stimulated human monocytes (ELISA). It counts as cell-based. The following applies: Homo sapiens, Monocyte; Table B; LPS 50 ng/ml, 24 h; read-out: IC50, LPS induced TNF human monocyte data. How it is done:
The effects of the compounds enumerated above on the in vitro production of TNF by human monocytes was examined using the following protocol.
Bacterial lipopolysaccharide (LPS) was used to induce TNF production by human peripheral blood monocytes. TNF activity was measured by a modification of Winston et al., ELISA, described below. […] The cells were allowed to adhere for 2 hours, after which time non-adherent cells were removed by gentle washing. […] At the end of the incubation period, culture supernatants were removed and clarified of cells and all debris. Culture supernatants were immediately assayed for TNF levels in the manner described below.
The Elisa employes a murine monoclonal anti-human TNF antibody, described below, as the capture antibody and a polyclonal rabbit anti-human TNF, described below, as the second antibody. […] TNF levels in samples were calculated from a standard curve genereated with recombinant human TNF produced in E. Coli (obtained from SmithKIine Beecham Pharmaceuticals, King of Prussia, Pa., USA).
Polyclonal rabbit anti-human TNF antibodies were prepared by repeated immunization of New Zeland White (NZW) rabbits with recombinant human TNF emulsified in complete Freund's adjuvant (DEFCO, Ill., USA).
In general terms: In an ELISA, binding on a coated surface is turned into a signal by an enzyme label.
On to `COc1ccc(-c2nc3n(c2-c2ccncc2)CCC3O)cc1` (stereo not drawn) [Compound F, 5,6-dihydro-2-(4-methoxyphenyl)-3-(4-pyridinyl)-[7H]-pyrrolo[1,2-a]-imidazole-7-ol], for which the IC50 worked out at 1000 nM.

Turning to `[O-][S+]1CCn2c1nc(-c1ccc(F)cc1)c2-c1ccncc1` (stereo not drawn) [Compound I, 6-(4-Fluorophenyl)-5-(4'-pyridyl)-2,3-dihydroimidazo[2,1-b]thiazole-1-oxide], the IC50 came out at 200 nM.

In the case of `Fc1ccc(-c2c(-c3ccncc3)nc3n2CCC3)cc1` [Compound N, 3-(4-Fluorophenyl)-2-(4-pyridyl)-6,7-dihydro-[5H]-pyrrolo-[1,2-a]-imidazole], the IC50 amounted to 1000 nM.

For the compound `COc1ccc(-c2nc3n(c2-c2ccncc2)CCC3=O)cc1` [Compound E, 2-(4-Methoxyphenyl)-3-(4-pyridyl)-7-oxo-5,6-dihydro-7-H-pyrrolo-[1,2-a]imidazole], the IC50 amounted to 1000 nM.

For `Fc1ccc(-c2nc3n(c2-c2ccncc2)CCC3)cc1` [Compound M, 2-(4-Fluorophenyl)-3-(4-pyridyl)-6,7-dihydro-[5H]-pyrrolo-[1,2-a]-imidazole], the 50% inhibitory concentration (IC50) amounted to 200 nM.

For `COc1ccc(-c2nc3n(c2-c2ccncc2)CCC3)cc1` [Compound 24, 2-(4-Methoxyphenyl)-3-(4-pyridyl)-6,7-dihydro-[5H]-pyrrolo-[1,2-a]-imidazole], the 50% inhibitory concentration (IC50) turned out to be 500 nM.

For the compound `CC(=O)OCSc1ccc(-c2nc3n(c2-c2ccncc2)CCC3)cc1` [Compound 10, 2-(4-acetoxymethylthiophenyl)-3-(4-pyridyl)-6,7-dihydro-[5H]-pyrrolo-[1,2-a]-imidazole], the IC50 came to 3000 nM.

Staying with this experiment, now noted: Table B; LPS 50 ng/ml, 24 h; read-out: IC50, LPS induced TNF human monocyte data.
For “2-phenyl-3-pyridyl-6,7-dihydro-[5H]-pyrrolo[1,2-a]imidazole [Compound C]”, the IC50 was 800 nM.

In the case of “2-p-bromophenyl-3-pyridyl-6,7-dihydro-[5H]-pyrrolo-[1,2-a]-imidazole [Compound D]”, the IC50 was found to be 1000 nM.
